What was measured:
[1] = test system: inflammatory mechanical allodynia induced by carrageenan; test: Carrageenan-induced inflammatory mechanical allodynia (von Frey); assay type: in vivo, male Sprague-Dawley rats; conditions: 30 mg/kg p.o.
Protocol: The-threshold of pain of the animals was measured by von Frey apparatus (IITC, type: 1601 C). […] The values were registered in the times of the pick up or raises. During each measurment the threshold was determined at least thrice and the avarage was calculated from the peak values.
Male Sprague-Dawley rats (weighing 250-300 g) were used (n=5-6/group). 100 μl of saline solution of carrageenant (CA) was injected to the middle of the paw. The stimulus threshold was measured after it, and the treatment was completed with gastro-probe per os. The effects of the materials were measured in 30, 60, 90, 120 minutes after the treatments. The effects were compared for control group treatment with vehicle (solution of 2% Tween-80).
The effect was calculated as follows: [formula] where tx=30, 60, 90, 120 min
In the acute pain model the analgesic effects of the valdecoxib and compound of example 1 were considerable with dose of 30 mg/kg p.o. once.

[2] = test system: carrageenan-induced foot paw edema; test: Carrageenan-induced rat foot paw edema assay; assay type: in vivo, male Wistar rats; conditions: for ED30 of edema inhibition: p.o.
Protocol: The edema was induced in male Wistar rats (140-150 g) by subcutaneous injection of carrageenan (50 μl of 1% suspension) into the right hind paw. The formed inflammation was measured with plethysmometer (Ugo Basile, type: 7150). The treated paw was placed into the plethysmometer (filled with 0.3% additives in 0.5% saline), the level of the inflammation was detected by the volume of the displaced solution. This volume was compared with the initial preinjection paw volume. Level of the inflammation (ml)=volume after CA treatment (ml)−volume before CA treatment (ml) The inflammation induced in treated group was compared to control group (which was given only vehicle). The sample materials and the solvent were dosed per os via gastro-sonde 1 hour before the CA treatment. The volume of the treated limb was measured at 3h and 5h after CA treatments. The change of the inflammation level was calculated as follows: [formula]

[3] = test system: carrageenan and kaolin induced monoarthritis; test: Carrageenan and kaolin induced monoarthritis model (incapacitance test); assay type: in vivo, rats; conditions: 10 mg/kg p.o.
Protocol: The Incapacitance tester is an apparatus for measure the changes of the functional parameters induced of the pain, which can register the bearing on the hind limb, the amount of the moving and the changing of the centre of gravity. Knee-joint of the right-back limb was treated with solution of 100 μl 2% carrageenan and kaolin. During 3-4 hours after the treatment arthritis was emerged in the capsular ligament of the treated limb. This inflammation still exists at 24 hours after the treatment. Because of the pain the animals coddles the treated limbs, thy weign on it less. Change of weight load is measurable with Incapacitance tester device in grams. The incapacitance was calculated as follows: [formula] Analgesic-antiinflammantory compounds could increase the stimulus threshold of the knee-joint, and consequently to improve the functional parameters of the limb. Measure of this can be counted by the decrease of the loading of left leg i.e. in terms of percentage of reversal. [formula] The Incapacitance induced by administration of irritants in left paw was measured at 4 hour after the injection. Afterwards the animals (n=24-32/group) were. orally treated with dose of 10 mg/kg valdecoxib and test compounds. Measurements were done at 1 and 2 hours after the treatments.

isolated rabbit heart = test: Cardiac effects on the isolated rabbit heart (Langendorff, coronary flow); set-up: species or system New Zealand white rabbits; coronary flow: unit not given here; conditions: for coronary flow % changing: versus basic value
Protocol: New Zealand white rabbits weighing 1.5-2 kg were used. The animals were exsanguinated and after thoracotomy the hearts were excised and mounted on a Langendorff-type perfusion apparatus. The hearts were perfused via the aorta with oxigenated, thermostated (37° C.) Krebs solution. A constant perfusion pressure of 80 cmH2O was applied. The test compounds were dissolved in the perfusion solution to obtain the requested concentrations.
The basic value of coronary flow was determined. Afterwards the small amount of compounds were added to perfusion liquid and the perfusion was measured for 30 minutes at every 10 minutes. Afterwards 30 minutes perfusion was performed without compound and the measure was repeated with the medium and high amount of compounds.
The effects of same concentration of valdecoxib and compound of example 1 were investigated in 4-4 hearts (1, 3 and 10 μM). Valdecoxib had no effect in either concentration. It can clearly be shown that the coronary flow was increased dose dependently. This effect is advantageous in practice of clinical therapy, because the painful arthritic and degenerative joint and bone deformations are emerged rather in old age, when diseases of the vascular system are also frequently encountered, which can conduce to disorder of vascular bed of the heart.

N-hydroxi-4-(3-phenyl-5-methyl-isoxazole-4-yl)-benzenesulfonamide monohydrate [example 1]
Analgesic effect in % after p.o. treatment ([1]; 30 min.): 61.6%
Analgesic effect in % after p.o. treatment ([1]; 1 hour): 57.1%
Analgesic effect in % after p.o. treatment ([1]; 1.5 hour): 44.5%
Analgesic effect in % after p.o. treatment ([1]; 2 hours): 41.5%
edema inhibition effect % ([2]; 0.3 mg/kg p.o., 4 hours after treatment): 19.5%
edema inhibition effect % ([2]; 0.3 mg/kg p.o., 6 hours after treatment): 17.5%
edema inhibition effect % ([2]; 1.0 mg/kg p.o., 4 hours after treatment): 25.2%
edema inhibition effect % ([2]; 1.0 mg/kg p.o., 6 hours after treatment): 37.2%
edema inhibition effect % ([2]; 3.0 mg/kg p.o., 4 hours after treatment): 33.9%
edema inhibition effect % ([2]; 3.0 mg/kg p.o., 6 hours after treatment): 40.4%
edema inhibition effect % ([2]; 10.0 mg/kg p.o., 4 hours after treatment): 40.7%
edema inhibition effect % ([2]; 10.0 mg/kg p.o., 6 hours after treatment): 59.2%
ED30 of edema inhibition ([2]; 4 hours after treatment): 1.8 mg/kg
ED30 of edema inhibition ([2]; 6 hours after treatment): 0.8 mg/kg
Analgesic effect (% reversal) after p.o. treatment ([3]; 1 hour): 63.2 % reversal
Analgesic effect (% reversal) after p.o. treatment ([3]; 2 hours): 76.9 % reversal
coronary flow (isolated rabbit heart; 1 μM, 10 minutes of treatment): 40.0 ± 3.3
coronary flow % changing (isolated rabbit heart; 1 μM, 10 minutes): 16.6%
coronary flow (isolated rabbit heart; 1 μM, 20 minutes of treatment): 39.0 ± 3.0
coronary flow % changing (isolated rabbit heart; 1 μM, 20 minutes): 13.7%
coronary flow (isolated rabbit heart; 1 μM, 30 minutes of treatment): 37.5 ± 2.4
coronary flow % changing (isolated rabbit heart; 1 μM, 30 minutes): 9.3%
coronary flow (isolated rabbit heart; 3 μM, 10 minutes of treatment): 37.3 ± 2.3
coronary flow % changing (isolated rabbit heart; 3 μM, 10 minutes): 24.3%
coronary flow (isolated rabbit heart; 3 μM, 20 minutes of treatment): 37.5 ± 1.7
coronary flow % changing (isolated rabbit heart; 3 μM, 20 minutes): 25.0%
coronary flow (isolated rabbit heart; 3 μM, 30 minutes of treatment): 38.8 ± 1.3
coronary flow % changing (isolated rabbit heart; 3 μM, 30 minutes): 26.0%
coronary flow (isolated rabbit heart; 10 μM, 10 minutes of treatment): 45.8 ± 2.5
coronary flow % changing (isolated rabbit heart; 10 μM, 10 minutes): 63.6%
coronary flow (isolated rabbit heart; 10 μM, 20 minutes of treatment): 48.3 ± 4.8
coronary flow % changing (isolated rabbit heart; 10 μM, 20 minutes): 72.5%
coronary flow (isolated rabbit heart; 10 μM, 30 minutes of treatment): 49.0 ± 4.8
coronary flow % changing (isolated rabbit heart; 10 μM, 30 minutes): 75.0%
effect on coronary flow (in words) (isolated rabbit heart; 1, 3 and 10 μM, 4-4 hearts): positive effect
